Experimental data reported in ChEMBL document CHEMBL1201862, “PubChem BioAssay data set” (2004).
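Following 48 hours of exposure in 96-well plates, responses at five concentrations were used to interpolate endpoints linearly. GI50 marks 50% less growth.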 Calls of active or inactive are those of the source. No stated cut-off is given here; in the data, active = GI50 up to about 1.1 µM and inactive = higher.

Assays:
Assay in all cases: DTP human tumour cell line panel, 48 h
[1] = tested on: 786-0
[2] = tested on: PC-3
[3] = tested on: SF-539
[4] = tested on: SN12C
[5] = tested on: OVCAR-5
[6] = tested on: DMS-273
[7] = tested on: NCI-H226
[8] = tested on: BT-549
[9] = tested on: MOLT-4
[10] = tested on: CCRF-CEM
[11] = tested on: DU-145
[12] = tested on: NCI/ADR-RES
[13] = tested on: KM-20L2
[14] = tested on: MDA-MB-435
[15] = tested on: DLD-1
[16] = tested on: KM12
[17] = tested on: SK-MEL-2
[18] = tested on: MDA-MB-231
[19] = tested on: NCI-H522
[20] = tested on: NCI-H460
[21] = tested on: K562
[22] = tested on: CAKI-1
[23] = tested on: HOP-62
[24] = tested on: A498
[25] = tested on: HL-60
[26] = tested on: SF-268
[27] = tested on: M14
[28] = tested on: LOX IMVI
[29] = tested on: OVCAR-3
[30] = tested on: COLO 205
[31] = tested on: HCC 2998
[32] = tested on: SW-620
[33] = tested on: SK-MEL-5
[34] = tested on: U-251
[35] = tested on: OVCAR-4
[36] = tested on: HT-29
[37] = tested on: T47D
[38] = tested on: LXFL 529
[39] = tested on: SK-MEL-28
[40] = tested on: DMS-114
[41] = tested on: SK-OV-3
[42] = tested on: A549
[43] = tested on: UO-31
[44] = tested on: SR
[45] = tested on: UACC-257
[46] = tested on: NCI-H23
[47] = tested on: UACC-62
[48] = tested on: RPMI-8226
[49] = tested on: TK-10
[50] = tested on: Hs-578T
[51] = tested on: IGROV-1
[52] = tested on: HOP-92
[53] = tested on: MDA-N
[54] = tested on: SNB-75
[55] = tested on: MCF7
[56] = tested on: M19-MEL
[57] = tested on: EKVX
[58] = tested on: SF-295
[59] = tested on: SNB-19
[60] = tested on: OVCAR-8
[61] = tested on: HCT-116
[62] = tested on: HOP-18
[63] = tested on: SNB-78
[64] = tested on: RXF 393
[65] = tested on: ACHN
[66] = tested on: HCT-15
[67] = tested on: Malme-3M

O=S1(=O)CCN(c2ccccc2CC(c2c[nH]c3ccccc23)c2c[nH]c3ccccc23)CC1
GI50 [1]: 6.03 µM (inactive) | GI50 [2]: 3.64 µM (inactive) | GI50 [3]: 11.9 µM (inactive) | GI50 [4]: 5.02 µM (inactive) | GI50 [5]: 14.1 µM (inactive) | GI50 [6]: 8.63 µM (inactive) | GI50 [7]: 12.7 µM (inactive) | GI50 [8]: 11.9 µM (inactive) | GI50 [9]: 2.33 µM (inactive) | GI50 [10]: 1.99 µM (inactive) | GI50 [11]: 7.43 µM (inactive) | GI50 [12]: 6.62 µM (inactive) | GI50 [13]: 8.85 µM (inactive) | GI50 [14]: 5.62 µM (inactive) | GI50 [15]: 4.37 µM (inactive) | GI50 [16]: 3.9 µM (inactive) | GI50 [17]: 6.24 µM (inactive) | GI50 [18]: 6.92 µM (inactive) | GI50 [19]: 4.49 µM (inactive) | GI50 [20]: 2.67 µM (inactive) | GI50 [21]: 3.08 µM (inactive) | GI50 [22]: 9.16 µM (inactive) | GI50 [23]: 13.6 µM (inactive) | GI50 [24]: 10 µM (inactive) | GI50 [25]: 1.12 µM (active) | GI50 [26]: 5.19 µM (inactive) | GI50 [27]: 4.35 µM (inactive) | GI50 [28]: 3.57 µM (inactive) | GI50 [29]: 5.53 µM (inactive) | GI50 [30]: 3.03 µM (inactive) | GI50 [31]: 3.64 µM (inactive) | GI50 [32]: 3.92 µM (inactive) | GI50 [33]: 6.61 µM (inactive) | GI50 [34]: 7.87 µM (inactive) | GI50 [35]: 7.91 µM (inactive) | GI50 [36]: 4.59 µM (inactive) | GI50 [37]: 6.35 µM (inactive) | GI50 [38]: 4.13 µM (inactive) | GI50 [39]: 8.73 µM (inactive) | GI50 [40]: 5.3 µM (inactive) | GI50 [41]: 8.67 µM (inactive) | GI50 [42]: 8.41 µM (inactive) | GI50 [43]: 7.41 µM (inactive) | GI50 [44]: 3.08 µM (inactive) | GI50 [45]: 5.15 µM (inactive) | GI50 [46]: 6.67 µM (inactive) | GI50 [47]: 8.99 µM (inactive) | GI50 [48]: 1.75 µM (inactive) | GI50 [49]: 5.32 µM (inactive) | GI50 [50]: 7.71 µM (inactive) | GI50 [51]: 6.93 µM (inactive) | GI50 [52]: 5.37 µM (inactive) | GI50 [53]: 3.92 µM (inactive) | GI50 [54]: 5.02 µM (inactive) | GI50 [55]: 3.66 µM (inactive) | GI50 [56]: 5.74 µM (inactive) | GI50 [57]: 8.49 µM (inactive) | GI50 [58]: 8.02 µM (inactive) | GI50 [59]: 12.3 µM (inactive) | GI50 [60]: 8.55 µM (inactive) | GI50 [61]: 4.47 µM (inactive) | GI50 [62]: 14.4 µM (inactive) | GI50 [63]: 30.1 µM (inactive) | GI50 [64]: 7.03 µM (inactive) | GI50 [65]: 5.04 µM (inactive) | GI50 [66]: 4.94 µM | GI50 [67]: 11.5 µM (inactive)

Cc1c2cc[n+](C)cc2c(C)c2c1[nH]c1ccc(Cl)cc12
GI50 [1]: 0.232 µM (active) | GI50 [2]: 0.918 µM (active) | GI50 [3]: 0.401 µM (active) | GI50 [4]: 0.214 µM (active) | GI50 [5]: 8.32 µM (inactive) | GI50 [6]: 1.76 µM (inactive) | GI50 [7]: 0.272 µM (active) | GI50 [8]: 1.26 µM (inactive) | GI50 [9]: 2.31 µM (inactive) | GI50 [10]: 0.802 µM (active) | GI50 [11]: 2.3 µM (inactive) | GI50 [12]: 2.96 µM (inactive) | GI50 [13]: 2.58 µM (inactive) | GI50 [14]: 5.98 µM (inactive) | GI50 [15]: 1.05 µM (active) | GI50 [16]: 0.897 µM (active) | GI50 [17]: 2.25 µM (inactive) | GI50 [18]: 4.41 µM (inactive) | GI50 [19]: 0.617 µM (active) | GI50 [20]: 4.81 µM (inactive) | GI50 [21]: 2.21 µM (inactive) | GI50 [22]: 1.85 µM (inactive) | GI50 [23]: 0.631 µM (active) | GI50 [24]: 0.282 µM (active) | GI50 [25]: 1.94 µM (inactive) | GI50 [26]: 0.29 µM (active) | GI50 [27]: 5.57 µM (inactive) | GI50 [28]: 4.67 µM (inactive) | GI50 [29]: 2.07 µM (inactive) | GI50 [30]: 0.494 µM (active) | GI50 [31]: 1.63 µM (inactive) | GI50 [32]: 0.176 µM (active) | GI50 [33]: 1.09 µM (active) | GI50 [34]: 0.25 µM (active) | GI50 [35]: 3.28 µM (inactive) | GI50 [36]: 3.34 µM (inactive) | GI50 [37]: 1.09 µM (active) | GI50 [38]: 0.286 µM (active) | GI50 [39]: 2.92 µM (inactive) | GI50 [40]: 0.341 µM (active) | GI50 [41]: 1.2 µM (inactive) | GI50 [42]: 0.197 µM (active) | GI50 [43]: 1.51 µM (inactive) | GI50 [44]: 5.32 µM (inactive) | GI50 [45]: 8.38 µM (inactive) | GI50 [46]: 0.843 µM (active) | GI50 [47]: 3.98 µM (inactive) | GI50 [48]: 25 µM (inactive) | GI50 [49]: 6.95 µM (inactive) | GI50 [50]: 0.295 µM (active) | GI50 [51]: 1.02 µM (active) | GI50 [52]: 2.96 µM (inactive) | GI50 [53]: 7.11 µM (inactive) | GI50 [54]: 0.242 µM (active) | GI50 [55]: 2.59 µM (inactive) | GI50 [56]: 0.993 µM (active) | GI50 [57]: 0.536 µM (active) | GI50 [58]: 0.374 µM (active) | GI50 [59]: 0.274 µM (active) | GI50 [60]: 0.298 µM (active) | GI50 [61]: 0.881 µM (active) | GI50 [62]: 3.78 µM (inactive) | GI50 [63]: 0.288 µM (active) | GI50 [64]: 1.18 µM (inactive) | GI50 [65]: 3.78 µM (inactive) | GI50 [66]: 5.87 µM | GI50 [67]: 1.74 µM (inactive)
